The test system of one data set is E. coli. Put plainly: MIC assay, E. coli. It counts as cell-based.
In the next data set the test system is H. flu. In words: MIC assay, H. flu. Type of data set: cell-based.
The next data set concerns E. faecalis. Put plainly: MIC assay, E. faecalis. Type of data set: cell-based.
The next data set has as its system S. pneumo. Put plainly: MIC assay, S. pneumo. Type of data set: cell-based.
The subject of a further data set is S. aureus. In words: MIC assay, S. aureus. Type of data set: cell-based.

≈ marks a conversion by molar mass, not a printed value. Bounds are passed on as bounds.

“3′-hydroxy-5′-(3-hydroxy-1-azetidinyl)benzoxazinorifamycin [Compound 1]”: the “MIC E. coli” value against E. coli was 4 µg/mL. Further, in the data set on H. flu, the “MIC H. flu” value was found to be 0.12 µg/mL. The “MIC E. faecalis” value against E. faecalis amounted to 0.12 µg/mL. Further, the “MIC S. pneumo.” value in the data set with S. pneumo. came to 0.00012 µg/mL. The “MIC S. aureus” value against S. aureus stood at 0.002 µg/mL.

`CO[C@H]1/C=C/OC2(C)Oc3c(C)c(O)c4c(=O)c(c5oc6cc(N7CC8CC7CN8)cc(O)c6nc-5c4c3C2=O)NC(=O)/C(C)=C\C=C\[C@H](C)[C@H](O)[C@@H](C)[C@@H](O)[C@@H](C)[C@H](OC(C)=O)[C@@H]1C` (some centres unmarked) [Compound 3] had a melting point greater than 330 °C.

Turning to `CO[C@H]1/C=C/OC2(C)Oc3c(C)c(O)c4c(=O)c(c5oc6cc(N7CC8CCC7CN8)cc(O)c6nc-5c4c3C2=O)NC(=O)/C(C)=C\C=C\[C@H](C)[C@H](O)[C@@H](C)[C@@H](O)[C@@H](C)[C@H](OC(C)=O)[C@@H]1C` (some centres unmarked) [Compound 4], the melting point was greater than 300 °C.

On to `COC1C=COC2(C)Oc3c(C)c(O)c4c(=O)c(c5oc6cc(N7CC8CCC(C7)N8)cc(O)c6nc-5c4c3C2=O)NC(=O)C(C)=CC=CC(C)C(O)C(C)C(O)C(C)C(OC(C)=O)C1C` (centres unmarked) [Compound 9], for which the “MIC E. coli” value in the data set on E. coli was greater than 8 µg/mL. The “MIC H. flu” value against H. flu came out at 2 µg/mL (≈ 2.2 µM). Moreover, the “MIC E. faecalis” value in the data set on E. faecalis came out at 1 µg/mL (≈ 1.1 µM). The “MIC S. pneumo.” value with S. pneumo. was determined as 0.00012 µg/mL (≈ 0.000132 µM). Further, in the data set on S. aureus, the “MIC S. aureus” value was found to be 0.008 µg/mL (≈ 0.00878 µM).

For `COC1C=COC2(C)Oc3c(C)c(O)c4c(=O)c(c5oc6cc(N7CC8CCC(C7)N8)cc(O)c6nc-5c4c3C2=O)NC(=O)C(C)=CC=CC(C)C(O)C(C)C(O)C(C)C(O)C1C` (centres unmarked) [Compound 10], the “MIC E. coli” value in the data set with E. coli came out at 4 µg/mL (≈ 4.6 µM). Also, the “MIC H. flu” value in the data set on H. flu worked out at 0.25 µg/mL (≈ 0.288 µM). Further, the “MIC E. faecalis” value in the data set with E. faecalis was determined as 0.12 µg/mL (≈ 0.138 µM). Moreover, the “MIC S. pneumo.” value in the data set with S. pneumo. was 0.001 µg/mL (≈ 0.00115 µM). For the same compound, in the data set with S. aureus, the “MIC S. aureus” value came out at 0.015 µg/mL (≈ 0.0173 µM).

(Values after patent US7547692B2, “Rifamycin analogs and uses thereof” (ActivBiotics Pharma, LLC, priority 2005, dated 2009).)
